The test system of one data set is male adults with AGA. Particulars: 5 mg oral at bedtime; 24 weeks; cited from earlier work.
The conditions of data set [1]: cited from earlier work.
Data set [2] has as its system rats. To be noted: two-year, oral administration; cited from earlier work.
The next data set concerns Chinese hamster cells. Particulars: long exposure times; cited from earlier work.
For data set [3] the following is noted: primarily conjugation with glucuronic acid; cited from earlier work.
The conditions of data set [4]: cited from earlier work; for Cmax: tablets, healthy subjects.
For data set [5], the system named is rats. To be noted: cited from earlier work.
The conditions of data set [6]: initially; chronic therapy; cited from earlier work.
The test system of data set [7] is person with androgenetic alopecia. The data set can be described thus: Case studies: oral minoxidil in male patients with androgenetic alopecia (blood pressure, heart rate, hair growth). To be noted: 1.25 mg QID.

The values that follow come from patent US20250345330A1 (Veradermics, Incorporated, priority 2024, published 2025).

Molecules are shown by their SMILES. Where two headings read alike, the source gives them in different places.

As a reminder, the Cmax is the highest concentration seen after dosing. For the compound `Nc1cc(N2CCCCC2)nc(N)[n+]1[O-]` [Minoxidil, minoxidil], the Cardiovascular outcomes in the data set with male adults with AGA is on record as “No adverse cardiovascular outcomes were observed”. Also, the “Radioactivity found in feces” value in data set [1] (human, in vivo) is recorded as 3%. Besides, the “Radioactivity recovered from urine, in total” value in data set [1] (human, in vivo) is listed as 97%. In addition, in [1] (within 24 h after oral administration), the “Radiolabeled minoxidil and metabolites recovered from urine” value was “Over 80%”. In addition, in the data set on rats [2], the Carcinogenicity findings entry is recorded as “no positive findings”. Besides, in the data set on Chinese hamster cells, the Cytogenetic assay result was “equivocal result”. Further, the “Fraction of oral minoxidil metabolized” value in [3] is on record as “About 90%”. In addition, the “Dose dependence of PK” value in [4] (2.5 mg, 5 mg, or 10 mg oral, healthy volunteers) was “dose-independent PK”. For the same compound, the “Duration of plasma concentrations above 20 ng/mL” value in data set [4] (5 mg dose level) is “around 1 h”; in data set [4] (10 mg dose level), “around 2 h”. In addition, the Cmax in data set [4] (2.5 mg) is recorded as 16.8 ng/mL; in data set [4] (5 mg), 37.2 ng/mL; in data set [4] (10 mg), 74.7 ng/mL. Moreover, in the data set on rats [5], the Fetal resorption entry is “not seen in rats”. Besides, in data set [6], the “Temporary decrease in hematocrit, hemoglobin, and erythrocyte count (hemodilution)” value is listed as “approximately 7%”. Besides, the Adverse events entry in [7] is “No unwanted hair growth or other adverse events”.
